Experiments:
[1] = tested on: SKOV-3 human ovarian adenocarcinoma xenograft; design: species or system CB17 SCID mice; settings: mouse, in vivo, ip
ERK1,2 phosphorylation [2] = assay: ERK1/2 phosphorylation ELISA, OVCAR-5 cells; assay type: cell-based, human; settings: for Vmax ± SE, pERK 1/2 inhibition: Michaelis Menten model; for IC50: Homo sapiens, read-out: IC50, pERK 1/2 inhibition
ERK1,2 phosphorylation [3] = assay: ERK1/2 phosphorylation ELISA, UWB1.289 cells; assay type: cell-based, human; settings: for Vmax ± SE, pERK 1/2 inhibition: Michaelis Menten model; for IC50: Homo sapiens, read-out: IC50, pERK 1/2 inhibition
ERK1,2 phosphorylation [4] = assay: ERK1/2 phosphorylation ELISA, OVCAR-3 cells; assay type: cell-based, human; settings: for Vmax ± SE, pERK 1/2 inhibition: Michaelis Menten model; for IC50: Homo sapiens, read-out: IC50, pERK 1/2 inhibition
ERK1,2 phosphorylation [5] = assay: ERK1/2 phosphorylation ELISA, SK-OV-3 cells; assay type: cell-based, human; settings: for Vmax ± SE, pERK 1/2 inhibition: Michaelis Menten model; for IC50: Homo sapiens, read-out: IC50, pERK 1/2 inhibition
SK-OV-3 cancer cell line = assay: cells; settings: Homo sapiens, SK-OV-3, 48 h
CB17 SCID mice = settings: both, mouse, in vivo, ip
[6] = tested on: UWB1.289+BRCA1 cancer cell line
[7] = tested on: UWB1.289 cancer cell line
pERK1,2 [8] = assay: Western immunoblotting densitometry, pERK1,2, SKOV-3 cells; assay type: cell-based, human; settings: 25 μM; for ratio [pERK1+pERK2]/[GAPDH] band intensity: SKOV-3 cells; for ratio [pERK1+pERK2]/[GAPDH] band intensity, single blot (panel A): panel A lower set, cell line not given
[9] = tested on: UWB1.289 cancer cell line; assay: cells; settings: Homo sapiens, UWB1289, 48 h
ERK1,2 phosphorylation [10] = assay: ERK1/2 phosphorylation ELISA, UWB1.289+BRCA1 cells; assay type: cell-based, human; settings: for Vmax ± SE, pERK 1/2 inhibition: Michaelis Menten model; for IC50: Homo sapiens, read-out: IC50, pERK 1/2 inhibition
pERK1,2 [11] = assay: Western immunoblotting densitometry, pERK1,2, OVCAR-3 cells; assay type: cell-based, human; settings: 25 μM; for ratio [pERK1+pERK2]/[GAPDH] band intensity: OVCAR-3 cells; for ratio [pERK1+pERK2]/[GAPDH] band intensity, single blot (panel A): panel A upper set, cell line not given
[12] = read-out: GI50 (50% Growth Inhibition)
[13] = read-out: IC50 (cytotoxic effect)

C[C@]12CC[C@@H]3c4ccc(OC(=O)CCOc5ccc(N(CCCl)CCCl)cc5)cc4CC[C@H]3[C@@H]1CCC(=O)N2 [ENGA-L08E, 12a-methyl-2-oxo-1,2,3,4,4a,4b,5,6,10b,11,12,12a-dodecahydronaphtho[2,1-f]quinolin-8-yl 3-(4-(bis (2-chloroethyl)amino)phenoxy) propanoate]
Cures (mice alive for 120 days after tumor inoculation) [1]: 2/5
MST (mean survival time) [1]: 76.5 ± 3.9 p < 0.01 Days
T/C% (mean survival time of treated versus saline controls) [1]: 187.9%
TI% (Tumor Inhibition) [1]: 76.4%
size of the primary tumor [1]: 390 ± 21.4 mm^3
Vmax ± SE, pERK 1/2 inhibition (ERK1,2 phosphorylation [2]; 15 min): 63.85 ± 3.62
Vmax ± SE, pERK 1/2 inhibition (ERK1,2 phosphorylation [2]; 30 min): 67.94 ± 4.54
Vmax ± SE, pERK 1/2 inhibition (ERK1,2 phosphorylation [2]; 60 min): 69.19 ± 2.95
IC50 (ERK1,2 phosphorylation [2]; 0.25 h, 15 min): 32.4 µM
IC50 (ERK1,2 phosphorylation [2]; 0.5 h, 30 min): 17 µM
IC50 (ERK1,2 phosphorylation [2]; 1 h, 60 min): 10.9 µM
Vmax ± SE, pERK 1/2 inhibition (ERK1,2 phosphorylation [3]; 15 min): 73.97 ± 1.64
Vmax ± SE, pERK 1/2 inhibition (ERK1,2 phosphorylation [3]; 60 min): 88.83 ± 2.13
IC50 (ERK1,2 phosphorylation [3]; UWB1289, 0.25 h, 15 min): 7.02 µM
IC50 (ERK1,2 phosphorylation [3]; UWB1289, 0.5 h, 30 min): 4.25 µM
IC50 (ERK1,2 phosphorylation [3]; UWB1289, 1 h, 60 min): 3.67 µM
Vmax ± SE, pERK 1/2 inhibition (ERK1,2 phosphorylation [4]; 15 min): 56.77 ± 0.49
Vmax ± SE, pERK 1/2 inhibition (ERK1,2 phosphorylation [4]; 30 min): 61.29 ± 1.88
Vmax ± SE, pERK 1/2 inhibition (ERK1,2 phosphorylation [4]; 60 min): 63.79 ± 1.33
IC50 (ERK1,2 phosphorylation [4]; 0.25 h, 15 min): 48.9 µM
IC50 (ERK1,2 phosphorylation [4]; 0.5 h, 30 min): 17.8 µM
IC50 (ERK1,2 phosphorylation [4]; 1 h, 60 min): 9.51 µM
Vmax ± SE, pERK 1/2 inhibition (ERK1,2 phosphorylation [5]; 15 min): 45.92 ± 2.07
Vmax ± SE, pERK 1/2 inhibition (ERK1,2 phosphorylation [5]; 30 min): 71.49 ± 0.55
Vmax ± SE, pERK 1/2 inhibition (ERK1,2 phosphorylation [5]; 60 min): 74.32 ± 0.43
IC50 (ERK1,2 phosphorylation [5]; 0.25 h, 15 min): > 50 µM
IC50 (ERK1,2 phosphorylation [5]; 0.5 h, 30 min): 11.2 µM
IC50 (ERK1,2 phosphorylation [5]; 1 h, 60 min): 7.67 µM
GI50 (SK-OV-3 cancer cell line; [12]): 10 ± 0.5 µM
IC50 (SK-OV-3 cancer cell line; [13]): > 100 µM
LD10 (CB17 SCID mice): 75 mg/kg
TGI (Total Growth Inhibition) [6]: 76 ± 7.2 μΜ
TGI (Total Growth Inhibition) [7]: 20 ± 1.5 μΜ
ratio [pERK1+pERK2]/[GAPDH] band intensity (pERK1,2 [8]; 15min, control ratio 1.70): 1.89
ratio [pERK1+pERK2]/[GAPDH] band intensity (pERK1,2 [8]; 30min, control ratio 1.70): 1.61
ratio [pERK1+pERK2]/[GAPDH] band intensity (pERK1,2 [8]; 1h, control ratio 1.78): 1.08
ratio [pERK1+pERK2]/[GAPDH] band intensity (pERK1,2 [8]; 3h, control ratio 1.74): 0.89
ratio [pERK1+pERK2]/[GAPDH] band intensity (pERK1,2 [8]; 12h, control ratio 1.61): 0.85
ratio [pERK1+pERK2]/[GAPDH] band intensity, single blot (panel A) (pERK1,2 [8]; 1h, control ratio 1.78): 0.54
ratio [pERK1+pERK2]/[GAPDH] band intensity, single blot (panel A) (pERK1,2 [8]; 3h, control ratio 1.78): 0.49
GI50 [9, 12]: 8 ± 0.9 µM
IC50 [9, 13]: 45 ± 3.3 µM
Vmax ± SE, pERK 1/2 inhibition (ERK1,2 phosphorylation [10]; 15 min): 56.97 ± 0.61
Vmax ± SE, pERK 1/2 inhibition (ERK1,2 phosphorylation [10]; 30 min): 66.56 ± 1.99
Vmax ± SE, pERK 1/2 inhibition (ERK1,2 phosphorylation [10]; 60 min): 71.72 ± 1.86
IC50 (ERK1,2 phosphorylation [10]; 0.25 h, 15 min): 25 µM
IC50 (ERK1,2 phosphorylation [10]; 0.5 h, 30 min): 10.7 µM
IC50 (ERK1,2 phosphorylation [10]; 1 h, 60 min): 8.56 µM
ratio [pERK1+pERK2]/[GAPDH] band intensity (pERK1,2 [11]; 30min, control ratio 1.71): 1.01
ratio [pERK1+pERK2]/[GAPDH] band intensity (pERK1,2 [11]; 1h, control ratio 1.65): 0.94
ratio [pERK1+pERK2]/[GAPDH] band intensity (pERK1,2 [11]; 3h, control ratio 1.99): 0.83
ratio [pERK1+pERK2]/[GAPDH] band intensity (pERK1,2 [11]; 6h, control ratio 1.85): 0.76
ratio [pERK1+pERK2]/[GAPDH] band intensity (pERK1,2 [11]; 12h, control ratio 1.82): 0.76
ratio [pERK1+pERK2]/[GAPDH] band intensity (pERK1,2 [11]; 24h, control ratio 1.92): 0.84
ratio [pERK1+pERK2]/[GAPDH] band intensity, single blot (panel A) (pERK1,2 [11]; 1h, control ratio 1.85): 0.51
ratio [pERK1+pERK2]/[GAPDH] band intensity, single blot (panel A) (pERK1,2 [11]; 3h, control ratio 1.85): 0.28
